Data reported in US7217730B2, “Method for the use of pyranoindole derivatives to treat infection with Hepatitis C virus” (Wyeth, priority 2002, dated 2007).

Columns and labels:
[1] = target: T1, NS5B from the BK strain (genotype 1b) (Hepatitis C virus genotype 1b, UniProt P26663); experiment: Hepatitis C polymerase inhibition, NS5B BK strain, 33P-GTP filter assay; format: biochemical; conditions: Table 1B; NS5B BK strain; read-out: BK IC50
T1 construct: NS5B from the BK strain (genotype 1b) is expressed in E. coli as a protein in which the 21 C-terminal amino acids are replaced; made in house; host or cells: E. coli
T1 sequence (P26663 2420-2989): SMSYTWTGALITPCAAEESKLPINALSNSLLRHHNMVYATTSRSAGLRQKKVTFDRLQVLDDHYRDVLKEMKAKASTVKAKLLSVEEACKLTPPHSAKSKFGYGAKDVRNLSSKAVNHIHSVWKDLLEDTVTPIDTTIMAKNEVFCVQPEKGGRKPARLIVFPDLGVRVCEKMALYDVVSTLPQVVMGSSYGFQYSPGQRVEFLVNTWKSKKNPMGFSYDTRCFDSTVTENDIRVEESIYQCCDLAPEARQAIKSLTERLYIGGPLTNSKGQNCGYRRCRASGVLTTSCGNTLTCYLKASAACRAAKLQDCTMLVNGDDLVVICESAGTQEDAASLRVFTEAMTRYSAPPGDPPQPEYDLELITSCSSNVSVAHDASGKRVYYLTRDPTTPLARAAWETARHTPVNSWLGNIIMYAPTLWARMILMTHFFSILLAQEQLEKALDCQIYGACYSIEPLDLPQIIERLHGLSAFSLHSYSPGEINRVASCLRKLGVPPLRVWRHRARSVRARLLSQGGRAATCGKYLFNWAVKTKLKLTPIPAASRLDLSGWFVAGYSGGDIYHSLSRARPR
In short: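 Radiolabelled RNA synthesis was measured by filter capture and scintillation counting after EDTA stop. His-tagged, C-terminally truncated (Δ21) genotype 1b BK NS5B from E. coli, pre-exposed to compound for 15 min, copied a self-primed RNA template (~3 nM) with α-[33P]-GTP for 2 h at room temperature.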

[2] = target: BB7 (RNA-dependent RNA polymerase hepatitis C virus protein sequence derived from HCV replicon) (Hepatitis C virus genotype 1b, UniProt Q9WMX2); experiment: Hepatitis C polymerase inhibition, BB7 sequence; format: biochemical; conditions: Table 1B
Chain of BB7 (RNA-dependent RNA polymerase hepatitis C virus protein sequence derived from HCV replicon) (Q9WMX2 2420-3010): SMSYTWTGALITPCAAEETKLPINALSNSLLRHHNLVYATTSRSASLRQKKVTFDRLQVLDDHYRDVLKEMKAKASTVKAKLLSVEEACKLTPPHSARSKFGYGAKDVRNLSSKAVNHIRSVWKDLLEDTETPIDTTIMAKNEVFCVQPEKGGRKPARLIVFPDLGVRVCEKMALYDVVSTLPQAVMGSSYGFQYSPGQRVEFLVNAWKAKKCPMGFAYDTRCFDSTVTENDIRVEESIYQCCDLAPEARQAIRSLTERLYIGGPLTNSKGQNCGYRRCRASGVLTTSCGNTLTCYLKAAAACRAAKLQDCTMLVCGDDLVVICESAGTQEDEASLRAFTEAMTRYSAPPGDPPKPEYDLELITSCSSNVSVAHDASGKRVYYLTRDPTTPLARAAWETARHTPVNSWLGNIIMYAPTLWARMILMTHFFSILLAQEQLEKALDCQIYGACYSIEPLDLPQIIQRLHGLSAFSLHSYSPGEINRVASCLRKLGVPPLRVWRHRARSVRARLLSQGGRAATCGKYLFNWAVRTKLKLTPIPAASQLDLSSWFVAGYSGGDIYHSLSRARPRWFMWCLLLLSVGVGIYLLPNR

Molecule | IC50 [1] | IC50 [2]
Cc1ccc(C(F)(F)F)c2c3c([nH]c12)C(CC(=O)O)(C1CC1)OCC3 (centres unmarked) [Example 274, (1-cyclopropyl-8-methyl-5-trifluoromethyl-1,3,4,9-tetrahydropyrano[3,4-b]indol-1-yl)acetic acid] | 9.3 µM | > 26 µM
O=C(O)CC1(C2CCCC2)OCCc2c1[nH]c1c(F)ccc(C(F)(F)F)c21 (centres unmarked) [Example 270, (1-cyclopentyl-8-fluoro-5-trifluoromethyl-1,3,4,9-tetrahydropyrano[3,4-b]indol-1-yl)acetic acid] | 20 µM | 17 µM
CC[C@@H](C)[C@@]1(C(=O)O)OCCc2c1[nH]c1c(F)ccc(C#N)c21 (relative stereo) [Example 349, (1R*,10R*)-[5-cyano-8-fluoro-1-(1-methylpropyl)-1,3,4,9-tetrahydropyrano[3,4-b]indol--1-yl]carboxylic acid] | 4.4 µM | > 24 µM
Cc1ccc(Cl)c2c3c([nH]c12)C(CC(=O)O)(C1CCC1)OCC3 (centres unmarked) [Example 259, (5-chloro-1-cyclobutyl-8-methyl-1,3,4,9-tetrahydropyrano[3,4-b]indol-1-yl)acetic acid] | 0.5 µM | 1.6 µM
CCCC1(CC(=O)O)OCCc2c1[nH]c1c(C)ccc([N+](=O)[O-])c21 (centres unmarked) [Example 298, (8-methyl-5-nitro-1-propyl-1,3,4,9-tetrahydropyrano[3,4-b]indol-1-yl)acetic acid] | 0.3 µM | 0.5 µM
CC[C@H](C)C1(CC(=O)O)OCCc2c1[nH]c1c(C)ccc([N+](=O)[O-])c21 (mixture of isomers) [Example 300, (1R*,10S)-[8-methyl-1-(1-methylpropyl)-5-nitro-1,3,4,9-tetrahydropyrano[3,4-b]indol-1-yl]acetic acid] | 0.14 µM | 0.25 µM
COCC1(CC(=O)O)OCCc2c1[nH]c1c(F)ccc(C#N)c21 (centres unmarked) [Example 303, (5-cyano-8-fluoro-1-methoxymethyl-1,3,4,9-tetrahydropyrano[3,4-b]indol-1-yl)acetic acid] | > 30 µM | > 30 µM
CCCCOc1cc(C#N)c2c3c([nH]c2c1C)C(CCC)(CC(=O)O)OCC3 (centres unmarked) [Example 365, (7-butoxy-5-cyano-8-methyl-1-propyl-1,3,4,9-tetrahydro-pyrano[3,4-b]indol-1-yl)-acetic acid] | 0.1 µM | 0.06 µM
Cc1ccc(C#N)c2c3c([nH]c12)C(CC(=O)O)(C1CC1)OCC3 (centres unmarked) [Example 283, (5-cyano-1-cyclopropyl-8-methyl-1,3,4,9-tetrahydropyrano[3,4-b]indol-1-yl)acetic acid] | 15 µM | > 27 µM
CCC[C@@]1(CC(=O)O)OCCc2c1[nH]c1c(Cl)ccc(C#N)c21 [Example 323, (1S)-(8-chloro-5-cyano-1-propyl-1,3,4,9-tetrahydropyrano[3,4-b]indol-1-yl)acetic acid] | 4.9 µM | 11 µM
CCC[C@]1(CC(=O)O)OCCc2c1[nH]c1c(Cl)ccc(C#N)c21 [Example 322, (1R)-(8-chloro-5-cyano-1-propyl-1,3,4,9-tetrahydropyrano[3,4-b]indol-1-yl)acetic acid] | 0.04 µM | 0.16 µM
CCCC1(CC(=O)O)OCCc2c1[nH]c1c(C)c(OCc3ccccc3)cc(C#N)c21 (centres unmarked) [Example 368, (7-benzyloxy-5-cyano-8-methyl-1-propyl-1,3,4,9-tetrahydro-pyrano[3,4-b]indol-1-yl)-acetic acid] | 0.11 µM | 0.13 µM
CC[C@H](C)[C@]1(CC(=O)O)OCCc2c1[nH]c1c(Cl)ccc(C#N)c21 [Example 326, (1S,10S)-[8-Chloro-5-cyano-1-(1-methylpropyl)-1,3,4,9-tetrahydropyrano[3,4-b]indol-1-yl]acetic acid] | 6.5 µM | 9.4 µM
COCC1(CC(=O)O)OCCc2c1[nH]c1c(Cl)ccc(Cl)c21 (centres unmarked) [Example 246, (5,8-dichloro-1-methoxymethyl-1,3,4,9-tetrahydropyrano[3,4-b]indol-1-yl)acetic acid] | > 30 µM | > 30 µM
CCCC1(C(=O)O)OCCc2c1[nH]c1c(Cl)ccc(C(F)(F)F)c21 (centres unmarked) [Example 331, (8-chloro-5-trifluoromethyl-1-propyl-1,3,4,9-tetrahydropyrano[3,4-b]indol-1-yl)carboxylic acid] | 0.5 µM | 2.5 µM
CSCC1(CC(=O)O)OCCc2c1[nH]c1c(C)ccc(C#N)c21 (centres unmarked) [Example 282, (5-cyano-1-methylthiomethyl-8-methyl-1,3,4,9-tetrahydropyrano[3,4-b]indol-1-yl)acetic acid] | 13 µM | 22 µM
CC[C@H](C)C1(CC(=O)O)OCCc2c1[nH]c1c(Cl)ccc(C#N)c21 (mixture of isomers) [Example 324] | 0.2 µM | 0.35 µM

Molecule | IC50 [1] | IC50 [2]
O=C(O)CC1(CCC(F)(F)F)OCCc2c1[nH]c1ccc(Cl)c(Cl)c21 (centres unmarked) [Example 239, [5,6-dichloro-1-(3,3,3-trifluoropropyl)-1,3,4,9-tetrahydropyrano[3,4-b]indol-1-yl]acetic acid] | 4.6 µM | 5.4 µM
O=C(O)CC1(CC2CC2)OCCc2c1[nH]c1c(Cl)ccc(Cl)c21 (centres unmarked) [Example 257, (5,8-dichloro-1-cyclopropylmethyl-1,3,4,9-tetrahydropyrano[3,4-b]indol-1-yl)acetic acid] | 1.9 µM | 2.9 µM
CCCC1(CC(=O)O)OCCc2c1[nH]c1c(C)c(OCc3cccc(F)c3)cc(C#N)c21 (centres unmarked) [Example 367, [5-cyano-7-(3-fluoro-benzyloxy)-8-methyl-1-propyl-1,3,4,9-tetrahydro-pyrano[3,4-b]indol-1-yl]acetic acid] | 0.08 µM | 0.09 µM
O=C(O)CC1(C2CCC2)OCCc2c1[nH]c1c(Cl)ccc(Cl)c21 (centres unmarked) [Example 253, (5,8-dichloro-1-cyclobutyl-1,3,4,9-tetrahydropyrano[3,4-b]indol-1-yl)acetic acid] | 0.35 µM | 0.7 µM
CCCC1(CC(=O)O)OCCc2c1[nH]c1c(C)ccc(C(F)(F)F)c21 (centres unmarked) [Example 272, (8-methyl-1-propyl-5-trifluoromethyl-1,3,4,9-tetrahydropyrano[3,4-b]indol-1-yl)acetic acid] | 0.5 µM | 1.5 µM
CC[C@@H](C)[C@@]1(CC(=O)O)OCCc2c1[nH]c1c(C)ccc(C#N)c21 (racemic) [Example 290, (1R*,10R*)-[5-cyano-8-methyl-1-(1-methylpropyl)-1,3,4,9-tetrahydropyrano[3,4-b]indol-1-yl]acetic acid] | 3.2 µM | 4.9 µM
CCCC1(C(=O)O)OCCc2c1[nH]c1c(C)ccc(C(F)(F)F)c21 (centres unmarked) [Example 333, (5-trifluoromethyl-8-methyl-1-propyl-1,3,4,9-tetrahydropyrano[3,4-b]indol-1-yl)carboxylic acid] | 1.3 µM | 7.6 µM
N#Cc1ccc(F)c2[nH]c3c(c12)CCOC3(CCC(F)(F)F)CC(=O)O (centres unmarked) [Example 301, [5-cyano-8-fluoro-1-(3,3,3-trifluoropropyl)-1,3,4,9-tetrahydropyrano[3,4-b]indol-1-yl]acetic acid] | 5.4 µM | 11.3 µM
(8-cyano-1-cyclobutyl-5-trifluoromethyl-1,3,4,9-tetrahydropyrano[3,4-b]indol-1-yl)acetic acid [Example 277] | 2.6 µM | 6.2 µM
CCCOc1cc(C#N)c2c3c([nH]c2c1C)[C@](CCC)(CC(=O)O)OCC3 [Example 361, (1S)-(5-cyano-8-methyl-7-propoxy-1-propyl-1,3,4,9-tetrahydro-pyrano[3,4-b]indol-1-yl)-acetic acid] | 1.8 µM | 0.77 µM
CCCC1(CC(=O)O)OCCc2c1[nH]c1cc(Cl)c(Cl)cc21 (centres unmarked) [Example 240, (6,7-dichloro-1-propyl-1,3,4,9-tetrahydropyrano[3,4-b]indol-1-yl)acetic acid] | 8.9 µM | 18 µM
Cc1ccc(C#N)c2c3c([nH]c12)C(CC(=O)O)(C1CCCC1)OCC3 (centres unmarked) [Example 287, (5-cyano-1-cyclopentyl-8-methyl-1,3,4,9-tetrahydropyrano[3,4-b]indol-1-yl)acetic acid] | 5.1 µM | 6.5 µM
CCC(C)C1(CC(=O)O)OCCc2c1[nH]c1c(Cl)ccc(Cl)c21 (centres unmarked) [Example 256, [5,8-dichloro-1-(1-methylpropyl)-1,3,4,9-tetrahydropyrano[3,4-b]indol-1-yl]acetic acid] | 0.15 µM | 0.34 µM
CC[C@H](C)C1(CC(=O)O)OCCc2c1[nH]c1c(C)ccc(Cl)c21 (mixture of isomers) [Example 261, (1R*,10S)-[5-chloro-8-methyl-1-(1-methylpropyl)-1,3,4,9-tetrahydropyrano[3,4-b]indol-1-yl]acetic acid] | 0.4 µM | 0.9 µM
N#Cc1ccc(F)c2[nH]c3c(c12)CCOC3(C(=O)O)C1CCCC1 (centres unmarked) [Example 350, (5-cyano-1-cyclopentyl-8-fluoro-1,3,4,9-tetrahydropyrano[3,4-b]indol-1-yl)carboxylic acid] | > 30 µM | > 30 µM
CCCC1(CC(=O)O)OCCc2c1[nH]c1c(C)c(C(=O)NC(C)C)cc(C#N)c21 (centres unmarked) [Example 355, (5-cyano-7-isopropylcarbamoyl-8-methyl-1-propyl-1,3,4,9-tetrahydro-pyrano[3,4-b]indol-1-yl)-acetic acid] | 5.1 µM | 2.9 µM
Cc1ccc(C#N)c2c3c([nH]c12)[C@@](CC(=O)O)(C1CCC1)OCC3 [Example 285, (1R)-(5-cyano-1-cyclobutyl-8-methyl-1,3,4,9-tetrahydropyrano[3,4-b]indol-1-yl)acetic acid] | 0.4 µM | 1.1 µM
